Results published in article PMC7597377 (Science signaling, 2020).
Numbering of substitutions follows the chain as printed.

How the values were obtained:
Experiment in all cases: competitive radiometric binding vs [3H]E2
[1] = target: T1, ERα LBD (WT-Q, his-tagged) (Homo sapiens, UniProt P03372)
T1 sequence (P03372 302-552 limits assumed): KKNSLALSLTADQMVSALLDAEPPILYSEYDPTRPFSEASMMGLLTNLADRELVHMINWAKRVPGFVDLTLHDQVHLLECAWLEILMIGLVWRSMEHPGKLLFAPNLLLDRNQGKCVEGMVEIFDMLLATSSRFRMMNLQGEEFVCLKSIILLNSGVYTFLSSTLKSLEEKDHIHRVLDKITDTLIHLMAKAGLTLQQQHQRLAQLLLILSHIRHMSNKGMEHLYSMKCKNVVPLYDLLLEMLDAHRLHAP

[2] = target: T2, ERα LBD (WT-Q, his-tagged) (Homo sapiens, UniProt P03372, Q375L)
T2 sequence (P03372 302-552 Q375L limits assumed): T1 sequence (P03372 302-552 limits assumed) with Q74L

[3] = target: T3, ERα LBD (WT-Q, his-tagged) (Homo sapiens, UniProt P03372, Q375H)
T3 sequence (P03372 302-552 Q375H limits assumed): T1 sequence (P03372 302-552 limits assumed) with Q74H

[4] = target: T4, ERα LBD (WT-Q, his-tagged) (Homo sapiens, UniProt P03372, Q375E)
T4 sequence (P03372 302-552 Q375E limits assumed): T1 sequence (P03372 302-552 limits assumed) with Q74E

[5] = target: T5, ERα LBD (WT-Q, his-tagged) (Homo sapiens, UniProt P03372, Q375K)
T5 sequence (P03372 302-552 Q375K limits assumed): T1 sequence (P03372 302-552 limits assumed) with Q74K

| Ki [1] [nM] | Ki [2] [nM] | Ki [3] [nM] | Ki [5] [nM] | SMILES | Ki [4] [nM] |
| --- | --- | --- | --- | --- | --- |
| 0.13 ± 0.04 | 0.16 ± 0.04 | 0.74 ± 0.04 | 0.29 ± 0.02 | CC[C@H]1C[C@]2(C)[C@@H](O)CC[C@H]2[C@@H]2CCc3cc(O)ccc3[C@@H]12 [Et-E2] | – |
| 0.06 ± 0.02 | 0.07 ± 0.01 | 0.29 ± 0.07 | 0.29 ± 0.05 | CC[C@H](c1ccc(O)cc1)[C@@H](CC)c1ccc(O)cc1 [Hex] | – |

| SMILES | Ki [1] [nM] | Ki [2] [nM] | Ki [3] [nM] | Ki [5] [nM] | Ki [4] [nM] |
| --- | --- | --- | --- | --- | --- |
| C[C@]12C[C@H](CCl)[C@@H]3c4ccc(O)cc4CC[C@H]3[C@@H]1CC[C@@H]2O [CME] | 0.11 ± 0.04 | 0.22 ± 0.05 | 0.58 ± 0.14 | 0.41 ± 0.1 | 0.35 ± 0.08 |
